Source: PMC5564600 (Oncotarget, 2017)

Legend:
Experiment in all cases: biochemical
Format in all cases: binding
[1] = biological target: T1, panel of 442 kinases (Homo sapiens, UniProt P36897); conditions: kinase TGFBR1; for remaining activity at 1 µM: read-out: TGFBR1 (% of control at 1 µM)
T1 construct: purchased Ambit Biosciences (scanMAXX KINOMEscan)
T1 sequence (P36897 34-503): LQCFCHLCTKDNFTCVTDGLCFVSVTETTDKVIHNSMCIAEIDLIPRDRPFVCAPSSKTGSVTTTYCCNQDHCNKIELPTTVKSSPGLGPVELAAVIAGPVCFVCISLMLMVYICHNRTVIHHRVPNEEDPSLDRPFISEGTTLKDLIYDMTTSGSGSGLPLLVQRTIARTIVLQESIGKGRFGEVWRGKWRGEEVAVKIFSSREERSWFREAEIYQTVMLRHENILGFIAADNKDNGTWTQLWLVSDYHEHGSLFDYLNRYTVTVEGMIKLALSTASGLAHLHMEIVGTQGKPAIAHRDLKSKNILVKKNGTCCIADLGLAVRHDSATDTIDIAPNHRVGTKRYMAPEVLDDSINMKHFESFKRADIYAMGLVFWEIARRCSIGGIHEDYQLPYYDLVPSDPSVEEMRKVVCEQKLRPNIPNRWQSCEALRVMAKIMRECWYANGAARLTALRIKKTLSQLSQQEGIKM

[2] = biological target: T2, panel of 442 kinases (Homo sapiens, UniProt P42680); conditions: kinase TEC; for remaining activity at 1 µM: read-out: TEC (% of control at 1 µM)
T2 construct: purchased Ambit Biosciences (scanMAXX KINOMEscan)
T2 sequence (P42680 1-631): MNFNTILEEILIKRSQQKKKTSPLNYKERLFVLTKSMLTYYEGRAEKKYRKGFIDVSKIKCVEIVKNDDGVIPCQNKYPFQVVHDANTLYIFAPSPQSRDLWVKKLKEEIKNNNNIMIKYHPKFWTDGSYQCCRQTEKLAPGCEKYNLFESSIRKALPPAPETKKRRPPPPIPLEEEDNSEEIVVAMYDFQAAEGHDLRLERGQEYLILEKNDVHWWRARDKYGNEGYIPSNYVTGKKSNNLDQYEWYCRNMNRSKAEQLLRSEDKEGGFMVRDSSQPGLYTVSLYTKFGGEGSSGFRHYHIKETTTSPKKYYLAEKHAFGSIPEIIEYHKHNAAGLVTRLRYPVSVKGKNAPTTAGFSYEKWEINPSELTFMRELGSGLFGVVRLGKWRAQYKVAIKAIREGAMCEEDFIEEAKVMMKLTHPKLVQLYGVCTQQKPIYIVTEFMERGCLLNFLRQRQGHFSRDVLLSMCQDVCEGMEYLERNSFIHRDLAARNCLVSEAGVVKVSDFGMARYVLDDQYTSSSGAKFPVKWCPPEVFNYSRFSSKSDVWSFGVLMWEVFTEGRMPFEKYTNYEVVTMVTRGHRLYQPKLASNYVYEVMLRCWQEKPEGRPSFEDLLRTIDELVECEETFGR

[3] = biological target: T3, panel of 442 kinases (Homo sapiens, UniProt Q96D53); conditions: ADCK4; for remaining activity at 1 µM: read-out: % of control at 1 µM
T3 construct: purchased Ambit Biosciences (scanMAXX KINOMEscan)
T3 sequence (Q96D53 1-544): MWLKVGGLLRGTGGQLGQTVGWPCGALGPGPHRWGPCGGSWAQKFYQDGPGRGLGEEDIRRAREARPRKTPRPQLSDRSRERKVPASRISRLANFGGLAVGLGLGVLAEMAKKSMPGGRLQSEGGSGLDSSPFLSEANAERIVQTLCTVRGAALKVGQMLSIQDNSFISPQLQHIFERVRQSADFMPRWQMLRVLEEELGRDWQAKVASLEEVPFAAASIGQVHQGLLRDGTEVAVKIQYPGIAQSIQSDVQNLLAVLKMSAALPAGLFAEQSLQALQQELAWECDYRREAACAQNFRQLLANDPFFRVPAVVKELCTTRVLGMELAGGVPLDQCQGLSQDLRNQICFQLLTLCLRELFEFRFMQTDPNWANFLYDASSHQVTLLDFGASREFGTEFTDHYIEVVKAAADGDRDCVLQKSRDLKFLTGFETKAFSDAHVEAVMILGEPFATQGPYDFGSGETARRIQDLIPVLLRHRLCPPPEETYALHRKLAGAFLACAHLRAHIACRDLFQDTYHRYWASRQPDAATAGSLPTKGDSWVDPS

Row | Compound | remaining activity at 1 µM [1] [%] | remaining activity at 10 µM ([1]; 10 µM, read-out: TGFBR1 (% of control at 10 µM)) [%] | remaining activity at 1 µM [2] [%] | remaining activity at 10 µM ([2]; 10 µM, read-out: TEC (% of control at 10 µM)) [%] | remaining activity at 1 µM [3] [%] | remaining activity at 10 µM ([3]; 10 µM, read-out: % of control at 10 µM) [%]
1 | Nc1cc(C(F)(F)F)c(-c2cc(N3CCOCC3)nc(N3CCOCC3)n2)cn1 [Buparlisib] | 100 | 100 | 87 | 100 | 100 | 100
2 | Cn1c(=O)n(-c2ccc(C(C)(C)C#N)cc2)c2c3cc(-c4cnc5ccccc5c4)ccc3ncc21 [Dactolisib, 2-methyl-2-[4-(3-methyl-2-oxo-8-quinolin-3-yl-2,3-dihydroimidazo[4,5-c]quinolin-1-yl)-phenyl] propionitrile] | 89 | – | 96 | – | – | –
3 | COc1ncc(-c2ccc3nccc(-c4ccnnc4)c3c2)cc1NS(=O)(=O)c1ccc(F)cc1F [Omipalisib] | 100 | – | 100 | – | 75 | –
4 | FC(F)c1nc2ccccc2n1-c1nc(N2CCOCC2)nc(N2CCOCC2)n1 [ZSTK474, 2-(difluoromethyl)-1-[4,6-di(4-morpholinyl)-1,3,5-triazin-2-yl]-1H-benzimidazole] | 79 | – | 89 | – | 74 | –
